Experimental data reported in US4479963A, “1-Carboxyalkanoylindoline-2-carboxylic acids” (Ciba-Geigy Corporation, priority 1982, dated 1984).
Blank lines part the entries; values can stand above or below the compound they belong to.

Tests used:
[1] = test system: angiotensin I converting enzyme; test: inhibition of pressor response following angiotensin I challenge in the dog; format: in vivo; conditions: oral dose of 10 mg/Kg
[2] = test system: spontaneous hypertensive rat; test: blood pressure and heart rate in the spontaneous hypertensive rat; format: in vivo
Protocol: The in vivo lowering effect on the blood pressure is recorded either directly by means of a catheter, for example placed in the dog's femoral artery, or indirectly by sphygmomanometry at the rat's tail, and a transducer, expressing the blood pressure prior and after dosing in mm Hg. Thus, for example, representative members of the compounds of this invention, illustrated by the Examples herein, are very effective in hypertensive rats and dogs at p.o.-doses as low or lower than 50 mg/kg/day.

[3] = test system: angiotensin I converting enzyme; test: inhibition of pressor response following angiotensin I challenge in normotensive rats; format: in vivo; conditions: rat
Protocol: The inhibition of said enzyme prevents the generation of angiotensin II from I and, therefore, attenuates any pressure response following an angiotensin I challenge.
The corresponding in vivo test is performed with male, normotensive rats, which are anesthetized with 100-120 mg/kg i.p. of sodium ethyl-(1-methylpropyl)malonylthiourea. A femoral artery and saphenous vein are cannulated for direct blood pressure measurement and i.v. administration of angiotensin I and compounds of this invention. After the basal blood pressure is stabilized, pressor responses to 3 challenges of 0.33 μg/kg of angiotensin I i.v., in 5 minute intervals, are obtained. Such pressure responses are again obtained 5, 10, 15, 30 and 60 minutes after either i.v., or p.o. administration (stomach tube) of the compounds to be tested, and compared with the initial responses.

[4] = target: T1, angiotensin-converting enzyme (Oryctolagus cuniculus, UniProt P12822); test: in vitro inhibition of the angiotensin-converting enzyme; format: biochemical, rabbit; conditions: hippuryl-histidyl-leucine substrate, 37°, 30 minutes; enzyme from lungs of adult male rabbits
T1 construct: freshly prepared from lungs of adult male rabbits; from tissue; host or cells: lungs of adult male rabbits
T1 sequence (P12822 34-1310): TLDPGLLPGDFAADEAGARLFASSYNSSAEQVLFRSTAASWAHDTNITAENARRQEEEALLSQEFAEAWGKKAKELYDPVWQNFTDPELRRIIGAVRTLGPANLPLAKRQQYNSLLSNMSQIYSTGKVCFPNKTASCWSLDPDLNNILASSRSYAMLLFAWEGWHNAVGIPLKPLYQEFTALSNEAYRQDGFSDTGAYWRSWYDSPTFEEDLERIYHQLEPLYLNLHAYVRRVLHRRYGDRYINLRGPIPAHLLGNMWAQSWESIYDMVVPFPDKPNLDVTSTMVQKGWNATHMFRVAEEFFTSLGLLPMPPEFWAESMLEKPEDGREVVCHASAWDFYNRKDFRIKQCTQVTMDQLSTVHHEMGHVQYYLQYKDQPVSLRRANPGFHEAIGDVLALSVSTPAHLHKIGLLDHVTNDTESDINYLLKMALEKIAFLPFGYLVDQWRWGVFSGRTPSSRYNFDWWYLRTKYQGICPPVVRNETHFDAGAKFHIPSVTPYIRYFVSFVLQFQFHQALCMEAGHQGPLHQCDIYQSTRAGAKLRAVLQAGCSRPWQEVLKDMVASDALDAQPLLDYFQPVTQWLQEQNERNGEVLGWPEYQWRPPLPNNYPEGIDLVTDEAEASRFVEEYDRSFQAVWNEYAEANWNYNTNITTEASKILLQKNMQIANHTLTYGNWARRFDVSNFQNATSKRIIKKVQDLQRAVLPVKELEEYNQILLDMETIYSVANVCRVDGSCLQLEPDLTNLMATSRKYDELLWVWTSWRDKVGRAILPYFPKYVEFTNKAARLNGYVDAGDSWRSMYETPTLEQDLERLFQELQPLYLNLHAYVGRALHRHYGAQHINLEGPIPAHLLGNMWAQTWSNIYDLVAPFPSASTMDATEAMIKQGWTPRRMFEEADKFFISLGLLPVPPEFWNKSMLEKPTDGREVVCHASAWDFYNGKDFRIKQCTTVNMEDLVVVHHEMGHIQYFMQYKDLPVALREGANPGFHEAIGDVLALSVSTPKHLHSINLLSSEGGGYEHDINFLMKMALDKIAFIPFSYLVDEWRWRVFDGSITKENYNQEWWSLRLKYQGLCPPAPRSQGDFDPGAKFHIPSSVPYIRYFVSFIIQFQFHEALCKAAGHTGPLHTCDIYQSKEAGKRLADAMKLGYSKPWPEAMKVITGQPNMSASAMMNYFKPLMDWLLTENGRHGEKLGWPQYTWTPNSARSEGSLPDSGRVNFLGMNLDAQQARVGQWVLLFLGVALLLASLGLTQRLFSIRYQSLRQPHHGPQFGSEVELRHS
Protocol: Biophys. Acta 293, 451 (1973). According to this method said compounds are dissolved at about 1 mM concentrations in phosphate buffer, externally cooled with ice. […] Said solutions are incubated at 37° for 30 minutes and combined with 0.75 ml of 0.6 N aqueous sodium hydroxide to stop further reaction. Then 100 μl of o-phthalaldehyde are added at room temperature, and 10 minutes later 100 μl of 6N hydrochloric acid. These samples are read against water in a spectrophotometer set at 360 nm, and the optical densities thereof estimated. They are corrected for the standard curve via a conversion factor expressing nanomoles of histidyl-leucine formed during said 30 minute incubation period. The results are plotted against drug concentration to determine the IC50, i.e., the drug concentration which gives half the activity of the control sample containing no drug.

- IC50 [4]: ~5 nM
SMILES: C[C@H](C[C@@H](CCc1ccccc1)C(=O)O)C(=O)N1c2ccccc2C[C@H]1C(=O)O [1-(4-carboxy-2R-methyl-4R-phenethylbutanoyl)indoline-2S-carboxylic acid]

- IC50 [4]: ~40 nM
SMILES: C[C@H](CCC(=O)O)C(=O)N1c2ccccc2C[C@H]1C(=O)O [1-(4-carboxy-2R-methylbutanoyl)-indoline-2S-carboxylic acid]

- IC50 [4]: ~300 nM
SMILES: O=C(O)CCCC(=O)N1c2ccccc2C[C@H]1C(=O)O [1-(4-carboxybutanoyl)-indoline-2S-carboxylic acid]

More lines, now with the values behind:

SMILES: C[C@H](C[C@@H](C)C(=O)N1c2ccccc2C[C@H]1C(=O)O)C(=O)OCC(=O)OC1CC2CCC1(C)C2(C)C (stereo partly drawn) [1-4-(l-bornyloxycarbonylmethoxycarbonyl)-2R,4R-dimethylbutanoyl-indoline-2S-carboxylic acid]
- inhibition of the pressor response following angiotensin I challenge [1]: inhibit the pressor response

SMILES: CCOC(=O)[C@H](C)C[C@@H](C)C(=O)N1c2ccccc2C[C@H]1C(=O)O [1-(4-carboethoxy-2R,4R-dimethylbutanoyl)-indoline-2S-carboxylic acid]
- decrease of heart rate ([2]; 30 mg/Kg p.o.): decrease heart rate
- lowering of blood pressure ([2]; 30 mg/Kg p.o.): significantly lower blood pressure
- inhibition of the pressor response following angiotensin I challenge ([3]; dose as low as 0.3 mg/Kg i.v.): about 50%
- inhibition of the pressor response following angiotensin I challenge ([3]; dose as low as 4 mg/Kg p.o.): about 50%

SMILES: CCOC(=O)[C@H](CCc1ccccc1)C[C@@H](C)C(=O)N1c2ccccc2C[C@H]1C(=O)O [1-(4-carboethoxy-2R-methyl-4R-phenethylbutanoyl)indoline-2S-carboxylic acid]
- decrease of heart rate ([2]; 10 mg/Kg p.o.): decrease heart rate
- lowering of blood pressure ([2]; 10 mg/Kg p.o.): significantly lower blood pressure

SMILES: C[C@H](C[C@@H](C)C(=O)N1c2ccccc2C[C@H]1C(=O)O)C(=O)O [1-(4-carboxy-2R,4R-dimethylbutanoyl)-indoline-2S-carboxylic acid]
- IC50 [4]: ~30 nM

SMILES: C[C@H](C[C@@H](C)C(=O)N1c2ccccc2C[C@H]1C(=O)O)C(=O)OCOC(=O)C(C)(C)C [1-[4-(pivaloyloxymethoxycarbonyl)-2R,4R-dimethylbutanoyl]-indoline-2S-carboxylic acid]
- inhibition of the pressor response following angiotensin I challenge [1]: inhibit the pressor response
